“Also recorded” adds a separate entry of the source. Where two headings read alike, the source gives them in different places.
What was measured:
[1] = system: newly transformed schistosomula (NTS) of Schistosoma mansoni; experiment: In vitro assay on newly transformed schistosomula (NTS), viability scoring by microscopy; assay type: cell-based
Text: (§1) The S. mansoni (Liberian strain) life-cycle, is maintained in-house at the Swiss Tropical and Public Health Institute (Swiss TPH), as described before. Biomphalaria glabrata were infected with 6 to 8 S. mansoni miracidia. They were kept in pond water under natural light, temperature and humidity conditions until the infectious stage, the cercariae, started to shed. The cercariae were mechanically transformed to schistosomula, the NTS, using a procedure adapted from Milligan & Jolly. NTS were incubated (37 °C, 5% CO2) until use for 12 to maximum 24 h in M199 medium supplemented with FCS and antibiotics. Adult S. mansoni of both sexes were collected by dissecting the intestinal veins of mice euthanized 7 weeks post-infection. All the adult worms recovered were incubated for maximum one week until use in RPMI medium supplemented with FCS and penicillin-streptomycin.
For in vitro screening on NTS, the parasite suspension was adjusted to 50 NTS/100 μl in supplemented M199 medium and added to the drug dilutions in 96-wells plates (Eppendorf AG, Hamburg, Germany). NTS were initially exposed to a drug concentration of 10 μM (0.1% DMSO). Each drug was tested in duplicate.
Hit compounds identified on NTS progressed into testing on adult worms. Females, males and pairs (3 to 5 worms per well) were exposed to the drug dilution in supplemented RPMI medium. The assays were performed in duplicate in 24-wells plates (Eppendorf AG, Hamburg, Germany). […] Each assay on NTS was performed in triplicate with serial drug dilutions (1:2, range: 10–0.16 μM) and repeated once. […] Each IC50 assay was repeated once. These assays were repeated for the lead compounds in presence of albumin (BSA) at the human physiological concentration of 45 g/l (AlbuMAX II, Gibco). For all in vitro assays (NTS and adults), negative controls containing the highest concentration of DMSO were included. Worms incubated with praziquantel served as positive controls. The parasites were evaluated under an inverted optical microscope over 3 days after drug exposure. Their movement and morphology were assessed and scored as described previously.
(§2) For in vitro assays, the average viability scores between replicates (or individual adult worms) were normalised to the controls and converted into percentage activity (or effect). Drug IC50 values (for NTS or adult worms) were calculated by computing different dose-effect values using CompuSyn2 software (ComboSyn Inc., 2007). The linear correlation coefficient (r) reflects the experimental fit. In this study, r-values > 0.70 were considered acceptable. […] The selectivity index (SI) of each drug was calculated by dividing the CC50 measured on the L6 cells by the IC50 measured on the parasites. For in vivo studies, as previously described, the worm burden reduction [%] was determined by comparing the worm burden of treated and untreated mice. For statistical significance a Kruskal-Wallis test was employed (R version 3.2.2).

[2] = system: adult S. mansoni; experiment: In vitro assay on adult S. mansoni worms, viability scoring by microscopy; assay type: cell-based; conditions: Schistosoma mansoni, read-out: Adult IC50
Text: as §1
(§3) Hit compounds identified on NTS progressed into testing on adult worms. Females, males and pairs (3 to 5 worms per well) were exposed to the drug dilution in supplemented RPMI medium. The assays were performed in duplicate in 24-wells plates (Eppendorf AG, Hamburg, Germany). […] Each IC50 assay was repeated once. These assays were repeated for the lead compounds in presence of albumin (BSA) at the human physiological concentration of 45 g/l (AlbuMAX II, Gibco). For all in vitro assays (NTS and adults), negative controls containing the highest concentration of DMSO were included. Worms incubated with praziquantel served as positive controls. The parasites were evaluated under an inverted optical microscope over 3 days after drug exposure. Their movement and morphology were assessed and scored as described previously.
as §2, with “Drug IC50 values (for NTS or adult worms) were calculated by computing different dose-effect values using CompuSyn2 software (ComboSyn Inc., 2007).” left out

[3] = system: adult S. mansoni; experiment: In vitro assay on adult S. mansoni worms in albumin-enriched medium (45 g/l); assay type: cell-based; conditions: Schistosoma mansoni, read-out: Adult IC50 with albumin
Description: as §3
as §2, with “Drug IC50 values (for NTS or adult worms) were calculated by computing different dose-effect values using CompuSyn2 software (ComboSyn Inc., 2007).” left out

[4] = Cytotoxicity assay on L6 cells (resazurin / Alamar Blue); assay type: cell-based; conditions: rat
Description: Rat skeletal myoblast L6 cells (2 × 10^4 cells/ml) were exposed to serial dilutions of the 11 lead compounds (1:3, range: 0.37–90 μM). Podophyllotoxin (PPT, 1:3, range: 2 × 10^-4 –0.05 μg/ml) was used as a positive control. After a 72-hour incubation, resazurin dye (Alamar Blue) was added to the plates. […] Each drug was tested in duplicate and each assay was repeated once.
as §2

[5] = system: S. mansoni; experiment: In vivo efficacy in mice harbouring a chronic S. mansoni infection (worm burden); parameters: species or system Schistosoma mansoni; conditions: for inhibition in vivo at 200 mg/kg: Schistosoma mansoni
Description: (§4) Three weeks old NMRI female mice were used (Charles Rivers, Germany) for in vivo drug efficacy studies. The animals were kept in groups of ten with constant access to food and water. After one week of habituation, mice were sub-cutaneously injected a suspension containing 100 S. mansoni cercariae in phosphate-buffered saline (PBS). The drugs (200 mg/kg single dose) were administered seven weeks post-infection by oral gavage to groups of 4 mice. They were dissolved in tap water with Tween80/ethanol (10%, 70:30). Untreated mice (n = 10) served as control and were dissected 7 weeks post-infection. Treated mice (n = 40) were euthanized with CO2 and dissected between 16 to 18 days post-drug administration. The worms were then collected, sexed and counted.
as §2

[6] = system: MRC5 cells; conditions: read-out: MRC5 cells CC50; ref provided by MMV; cited from earlier work
[7] = Survival of treated infected mice in the in vivo study; conditions: single 200 mg/kg oral dose
Description: as §4
Eight compounds had no effect on the worm burden in infected mice (worm burden reduction < 36%).

[8] = Schistosoma mansoni, 24 h; read-out: NTS IC50
[9] = Schistosoma mansoni, 48 h; read-out: NTS IC50
[10] = mice, single 200 mg/kg oral dose, 49-day-old adult infection, read-out: WBR (worm burden reduction)
[11] = mice, single 200 mg/kg oral dose, 49-day-old adult infection
[12] = po, read-out: WBR (worm burden reduction), mice, single 200 mg/kg oral dose, 49-day-old adult infection
[13] = 72-hour incubation, read-out: L6 cells CC50

SMILES | IC50 [1, 8] [µM] | IC50 [1, 9] [µM] | IC50 ([2]; 24 h, standard medium) [µM] | IC50 ([2]; 48 h, standard medium) [µM] | IC50 ([3]; 24 h, albumin 45 g/l) [µM] | IC50 ([3]; 48 h, albumin 45 g/l) [µM] | IC50 ([3]; 72 h, albumin 45 g/l) [µM] | CC50 at 72 h [4] [µM] | inhibition in vivo at 200 mg/kg [5, 10] [%] | Mean worm burden ± SD [5, 11] | CC50 [6] [µM] | CC50 at 72 h [4, 13] [µM] | other results
CCOc1cc2ncc(C#N)c(Nc3ccc(F)c(Cl)c3)c2cc1NC(=O)/C=C/CN(C)C [MMV690765, Pelitinib] | 914 | > 1 | 4.2 | 3.4 | 652 | 226 | 124 | 11.8 | 0 | 84.0 ± 56.4 | 0.7 | – | –
Fc1ccc(Cl)cc1-c1nc(Nc2ccncc2)c2nccnc2n1 [MMV690534] | – | – | – | – | – | – | – | – | – | 7.8 ± 7.5 | 12.4 | – | IC50 ([1]; Schistosoma mansoni, 24 h, read-out: NTS IC50): 11.8 µM; IC50 ([1]; Schistosoma mansoni, 48 h, read-out: NTS IC50): 14.3 µM; IC50 ([2]; 24 h): 17.4 µM; IC50 ([2]; 48 h): 19.3 µM; CC50 at 72 h ([4]; L6 skeletal myoblast cells, 72-hour incubation, read-out: L6 cells CC50): 74.5 µM; inhibition in vivo at 200 mg/kg [5, 12]: > 50%
CC[C@@H]1C(=O)N(C)c2cnc(Nc3ccc(C(=O)NC4CCN(C)CC4)cc3OC)nc2N1C1CCCC1 [MMV690787] | – | – | – | – | – | – | – | – | 0 | 48.3 ± 21.6 | 0.1 | – | –
O=C(O)Cc1cccc(OCCCN(Cc2cccc(C(F)(F)F)c2Cl)CC(c2ccccc2)c2ccccc2)c1 [MMV690466] | 14.6 | 3.8 | 2.9 | 2.3 | 18.1 | 89.7 | 47.6 | – | 35.9 | 10.3 ± 6.9 | 8.4 | 1.6 | effect on NTS at 10 μM ([1]; 10 μM, 48 h): high effect; also recorded: high activity
COc1ccc(NC(=O)c2ccc(-c3ccc(-c4noc(C)n4)cc3C)cc2)cc1N1CCN(C)CC1 [MMV003452] | 4.4 | 2.2 | 1.7 | 3 | 22.6 | – | 7.5 | 3.7 | 12.2 | 40.5 ± 17.2 | 1.9 | – | –
CC#CC(=O)Nc1ccc2ncnc(Nc3cccc(Br)c3)c2c1 [MMV690684] | 4 | 3.1 | 4.9 | 4.7 | 76.8 | 14.4 | 7.7 | 7 | 10 | 41.5 ± 16.5 | 7 | – | –
CC(C)(Cc1c[nH]c2ccc(Cl)cc12)NCCOc1ccccc1OCC1CC1 [MMV690599] | 10.5 | 3.5 | – | – | – | – | – | – | – | 44.7 ± 29.6 | 2 | 3.4 | IC50 ([2]; 48 h): 3.3 µM; IC50 ([3]; 24 h): 23.6 µM; IC50 ([3]; 48 h): 19.1 µM; IC50 ([3]; 72 h): 15.9 µM; inhibition in vivo at 200 mg/kg [5, 12]: 3.2%
Cc1ccc(C(=O)N(CCCN)[C@@H](c2nc3cc(Cl)ccc3c(=O)n2Cc2ccccc2)C(C)C)cc1 [MMV690646, Ispinesib] | 3 | 1.1 | 3.7 | – | 32 | 122 | 33.6 | – | – | – | 0.2 | – | death of treated mice [7]: died prematurely; also recorded: death of the mice
Nc1nc2ccc(Cl)cc2c2nc(-c3ccco3)nn12 [MMV001539] | 12.7 | 11 | 28.2 | 12.3 | – | – | – | – | – | – | 16 | 2.9 | –
CNCc1ccc(C)c(NC(=O)c2ccc(Nc3nc(-c4ccccc4)c4ccccc4n3)cc2)c1 [MMV690732] | 29.5 | 6.3 | 4.9 | 2.9 | 62.8 | 181 | 54.1 | 2.3 | 0 | 47.5 ± 24.3 | 1.9 | – | –

— article PMC5952519, “Screening a repurposing library, the Medicines for Malaria Venture Stasis Box, against Schistosoma mansoni” (Parasites & Vectors, 2018)
